Source: patent US7642400B2, “Protein kinase C iota” (Mayo Foundation for Medical Education and Research, priority 2004, dated 2010)
Where a name gives a salt, the structure may show the parent alone. Read-outs that look alike come from different tables or passages of the source.

Target: T1, interaction of PKCι polypeptides with PAR6 polypeptides (Homo sapiens, UniProt P41743)
T1 construct: amino acids 1-113 or a full-length PKCι polypeptide; 6xHis; made in house
T1 sequence (P41743 10-122): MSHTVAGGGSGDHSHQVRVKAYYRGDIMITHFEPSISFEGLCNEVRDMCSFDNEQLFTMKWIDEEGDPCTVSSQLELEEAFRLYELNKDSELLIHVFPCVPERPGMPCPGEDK
Experiment: Secondary screen: PYN bound to plate-immobilised biotin-tagged PAR6
Assay type: binding
Settings: for dose-response analysis using the secondary screening assay: increasing amounts, e.g. 0, 0.1, 1, 10, 100, and 100 μM
Experimental: Multiple test compounds that were classified as hits in the primary screen as well as additional related compounds were evaluated in a secondary screen designed as follows. Briefly, a 96-well microtiter plate coated with streptavidin (Nunc #436014) was incubated for 2-4 hours at room temperature with 100 μl of a 20-30 μg/ml solution of biotin-tagged PAR6 (whole polypeptide) in phosphate-buffered saline containing Tween-20 (PBST). Plates were washed twice with PBST, then once with incubation buffer (50 mM Tris, pH 8.0; 135 mM NaCl; 10% glycerol; 0.002% EDTA). Incubation buffer (50 μl) was added to each well. The compounds to be tested were added (10 μl) followed by PYN (50 μl) diluted in incubation buffer to an approximate concentration of 4000-5000 relative fluorescent units per 50 μl. Plates were incubated overnight at 4° C. Plates were washed twice with incubation buffer, after which 50 μl incubation buffer was added to retain moisture in the wells. The amount of PYN bound on the plates was determined by measuring yellow fluorescence (532/526) in a Typhoon imager. Fluorescence was quantitated by Softmax Pro software.
A dose-response analysis was performed using the secondary screening assay and increasing amounts (e.g., 0, 0.1, 1, 10, 100, and […]) of gossypol, hexestrol, thimerosal, ebselen, ATG, ATM, ellagic acid, cisplatin, apomorphine, or phenylmercuric acetate.

[1] = amount of PYN bound to biotin-tagged PAR6 plates

| Compound | Secondary Screen [1] | other results |
| --- | --- | --- |
| C[C@@H]1O[C@@H](O[C@H]2[C@H](Oc3cc(O)c4c(c3)O[C@H](c3ccc(O)cc3)CC4=O)O[C@H](CO)[C@@H](O)[C@@H]2O)[C@H](O)[C@H](O)[C@H]1O [Naringin] | No effect |  |
| [H]/N=C(\N/C(=N/[H])NCCCCCCNC(=N)NC(=N)Nc1ccc(Cl)cc1)Nc1ccc(Cl)cc1 [chlorhexidine] | No effect |  |
| Oc1cc(O)c2c(c1)O[C@H](c1ccc(O)c(O)c1)[C@@H](O)C2 [Cianidanol] | No effect (related compound |  |
| CC[C@@H](CO)NC(=O)[C@@H]1C=C2c3cccc4[nH]cc(c34)C[C@H]2N(C)C1 [Methylergonovine] | No effect |  |
| CCCc1ncc(C[n+]2ccccc2C)c(N)n1 [Amprolium] | No effect |  |
| CC1=C(CC(=O)O)c2cc(F)ccc2/C1=C\c1ccc([S+](C)[O-])cc1 (stereo not shown) [Sulindac] | No effect |  |
| COc1ccc(C(Cl)=C(c2ccc(OC)cc2)c2ccc(OC)cc2)cc1 [Chlorotrianisene] | No effect (related compound |  |
| CC(=O)/N=c1/sc(S(N)(=O)=O)nn1C [Methazolamide] | No effect |  |
| C[C@]12CC[C@@H](O)C[C@H]1CC[C@@H]1[C@@H]2CC[C@]2(C)C(=O)CC[C@@H]12 [Etiocholanolone] |  | Secondary Screen: No effect |
| N=C(N)NC(=O)c1nc(Cl)c(N)nc1N [Amiloride] | No effect |  |
| C[C@]12CC[C@@H]3c4ccc(O)cc4CC[C@H]3[C@@H]1CC[C@@H]2O [b-estradiol] | had no effect) |  |
| Nc1nc2ncc(CNc3ccc(C(=O)N[C@@H](CCC(=O)O)C(=O)O)cc3)nc2c(=O)[nH]1 [Folic acid] | No effect |  |
| COc1ccc([C@@H]2CC(=O)c3c(O)cc(O[C@@H]4O[C@H](CO[C@@H]5O[C@@H](C)[C@H](O)[C@@H](O)[C@H]5O)[C@@H](O)[C@H](O)[C@H]4O)cc3O2)cc1O [hespiridin] | hespiridin had no effect) |  |
| CC1=C(/C=C/C(C)=C/C=C/C(C)=C/C(=O)O)C(C)(C)CCC1 [Tretinon] | No effect |  |
| Nc1ccc(/N=N/c2ccccc2)c(N)n1 [Phenazopyridine] | No effect |  |
| O=C(O)c1cc2ccccc2c(Cc2c(O)c(C(=O)O)cc3ccccc23)c1O.OCCOCCN1CCN(C(c2ccccc2)c2ccc(Cl)cc2)CC1 [Hyydroxyzine pamoate] | No effect |  |
| CC(C)NCC(O)c1ccc(O)c(O)c1 (stereo not shown) [Isoproterenol hydrochloride] | No effect |  |
| O=C(CCCN1CC=C(n2c(=O)[nH]c3ccccc32)CC1)c1ccc(F)cc1 [droperidol] | droperidol had no effect) |  |
| Cc1cc(N)c2ccccc2[n+]1CCCCCCCCCC[n+]1c(C)cc(N)c2ccccc21 [Dequalinium chloride] | No effect |  |
| CC(C)[N+](C)(CCOC(=O)C1c2ccccc2Oc2ccccc21)C(C)C [Propantheline bromide] | No effect |  |
| CC[C@@]1([C@@H]2O[C@@H]([C@H]3O[C@@](O)(CO)[C@H](C)C[C@@H]3C)C[C@@H]2C)CC[C@H]([C@]2(C)CC[C@]3(C[C@H](O)[C@@H](C)[C@@H]([C@@H](C)[C@@H](OC)[C@H](C)C(=O)O)O3)O2)O1 [Monensin, sodium] | No effect |  |
| CCN(CC)Cc1cc(Nc2ccnc3cc(Cl)ccc23)ccc1O [Amodiaquine] | No effect |  |
| Veratrine sulfate | No effect |  |

| Compound | Secondary Screen [1] | other results |
| --- | --- | --- |
| O=C(O)c1cc(O)ccc1O [Gentisic acid] | No effect |  |
| CCC(=O)O[C@H]1[C@H](O[C@@H]2[C@@H](C)[C@H](O[C@H]3C[C@@](C)(OC)[C@@H](O)[C@H](C)O3)[C@@H](C)C(=O)O[C@H](CC)[C@@](C)(O)[C@H](O)[C@@H](C)C(=O)[C@H](C)C[C@@]2(C)O)O[C@H](C)C[C@@H]1N(C)C [Erythromycin propionate lauryl sulfate] | No effect |  |
| C[n+]1c2cc(N)ccc2cc2ccc(N)cc21.[Cl-] [Acriflavinium hydrochloride] | No effect |  |
| CN1CCCN=C1/C=C/c1cccs1 [Pyrantel pamoate] | Confirmed | Secondary Screen (amount of PYN bound to biotin-tagged PAR6 plates, listed as pyrantel pamoate): confirmed |
| CC1=C(C(=O)O)N2C(=O)[C@@H](NC(=O)[C@H](N)c3ccc(O)cc3)[C@H]2SC1 [cefadroxil] | had no effect) |  |
| Benzalkonium chloride | No effect |  |
| O=C1C=CC(=C(c2ccc(O)cc2)c2ccc(O)cc2)C=C1 [Rosolic acid] | No effect |  |
| CC(=O)[O-].[Hg+][c]1ccccc1 [Phenylmercuric acetate] |  | Secondary Screen (amount of PYN bound to biotin-tagged PAR6 plates, acetate): Confirmed; Secondary Screen (amount of PYN bound to biotin-tagged PAR6 plates, listed as phenylmercuric acetate, acetate): confirmed; dose-response analysis using the secondary screening assay: dose-dependent response was detected |
| COc1ccc2c(c1OC)C(=O)O[C@@H]2[C@H]1c2cc3c(cc2CCN1C)OCO3 [Hydrastine] | No effect |  |
| CCn1cc(C(=O)O)c(=O)c2cc(F)c(N3CCNC(C)C3)c(F)c21 (stereo not shown) [lomefloxacin] | lomefloxacin had no effect) |  |
| O=c1oc2c(O)c(O)cc3c(=O)oc4c(O)c(O)cc1c4c23 [Ellagic acid] | Confirmed | Secondary Screen (amount of PYN bound to biotin-tagged PAR6 plates, listed as ellagic acid): confirmed; dose-response analysis using the secondary screening assay: dose-dependent response was detected |
| CN1CCc2cccc3c2[C@H]1Cc1ccc(O)c(O)c1-3 [Apomorphine] | Confirmed | Secondary Screen (amount of PYN bound to biotin-tagged PAR6 plates, listed as apomorphine): confirmed; dose-response analysis using the secondary screening assay: dose-dependent response was detected |
| O=C1OCCN1/N=C/c1ccc([N+](=O)[O-])o1 [Furazolidone] | No effect |  |
| CN(C)CCCN1c2ccccc2Sc2ccc(C(F)(F)F)cc21 [Triflupromazine] | No effect |  |
| CNC[C@H](O)c1ccc(O)c(O)c1 [Epinephrine bitartrate] | No effect |  |
| N.N.[Cl][Pt][Cl] [Cisplatin] | Confirmed | Secondary Screen (amount of PYN bound to biotin-tagged PAR6 plates, listed as cisplatin): confirmed; dose-response analysis using the secondary screening assay: dose-dependent response was detected |
| O=C(OCC(O)CO)c1ccccc1Nc1ccnc2cc(Cl)ccc12 (stereo not shown) [Glafenine] | No effect |  |
| COc1c(C)c2c(c(O)c1C/C=C(\C)CCC(=O)O)C(=O)OC2 [Mycophenolic acid] | No effect |  |
| CC[C@H](c1ccc(O)cc1)[C@@H](CC)c1ccc(O)cc1 [hexestrol] | hexestrol was confirmed) | dose-response analysis using the secondary screening assay: dose-dependent response was detected |
| C[CH2][Hg][S]c1ccccc1C(=O)[O-].[Na+] [Thimerosal] | Confirmed | Secondary Screen (amount of PYN bound to biotin-tagged PAR6 plates, listed as thimerosal): confirmed; dose-response analysis using the secondary screening assay: dose-dependent response was detected |
| CCn1cc(C(=O)O)c(=O)c2cc(F)c(N3CCNCC3)nc21 [enoxacin] | lomefloxacin had no effect) |  |
| COc1cc(NC(C)CCCN)c2ncccc2c1 (stereo not shown) [Primaquine phosphate] | No effect |  |
| Antimycin A | No effect |  |
